# pIC50: −log10 of the molar value.
# Experiments:
# Poly d(A-T)n = test: Thermal melting; type: binding; details: for Increase in ΔTm on replacing one furan ring with thiophene: compared with bifuran 1c
# [1] = tested on: cultured L6 rat myoblast cells; test: Cytotoxicity, Alamar Blue assay; type: cell-based; details: read-out: Cytotoxicity IC50
# Plasmodium falciparum K1 = test: In vitro activity against P. falciparum; type: cell-based; details: read-out: P. falciparum IC50; strain K1; average of duplicate determination
# [2] = tested on: T. b. rhodesiense STIB900; test: STIB900 acute mouse model of trypanosomiasis; type: in vivo; details: 5 mg/kg ip, 4 consecutive days
Compound,Survival (average days of survival) [2] [days],Increase in ΔTm on replacing one furan ring with thiophene (Poly d(A-T)n),other results
"6-(5′-Amidino-2,2′-bifuran-5-yl)-nicotinamidine acetate [Compound 1h]",25.5,,"ΔTm, increase in thermal melting of Poly d(A-T)n (Poly d(A-T)n; ratio 0.3 mol compound per mole DNA, CAC 10 buffer pH 7.0): 6.0 °C; pIC50 [1]: 4.57; pIC50 (Plasmodium falciparum K1): 8.19; Cures (mice that survive and are parasite free for 60 days) ([2]; groups of four mice): 0/4"
"Cl.N=C(N)c1ccc(-c2ccc(-c3ccc(C(=N)N)s3)o2)cc1 [Compound 1d, 5-[5-(4-Amidinophenyl)-furan-2-yl]-thiophene-2-carboxamidine hydrochloride]",,approximately 5 °C,
"Cl.N=C(N)c1ccc(-c2ccc(-c3ccc(C(=N)N)s3)s2)cc1 [Compound 1e, 5′-(4-Amidinophenyl)-2,2′-bithiophene-5-carboxamidine hydrochloride]",26.25,,
"Cl.N=C(N)c1ccc(-c2ccc(-c3ccc(C(=N)N)o3)s2)cc1 [Compound 1f, 5-[5-(4-Amidinophenyl)-thiophen-2-yl]-furan-2-carboxamidine hydrochloride]",,approximately 5 °C,

# Reference: PMC3064985 (Bioorganic & medicinal chemistry, 2010)
